{"source": "patent US10478464B2", "about": "“Compositions and methods of use” (priority 2009, dated 2019)", "key": {"[1]": {"tested_on": "leukemia cell lines (CCRF-CEM, K-562, SR, MOLT-4, RPMI-8226, HL-60(TB))", "assay": "NCI 60 human tumor cell line screen (MTT), leukemia lines", "assay_type": "cell-based", "conditions": "10 μM"}, "[2]": {"tested_on": "HOP-92 lung cancer cell lines", "assay": "Cell survival, colorimetric MTT assay, HOP-92", "assay_type": "cell-based, human", "conditions": "100 μM, 72 hours", "experimental": "1) Against the lung cancer cell lines: The effect of the racemic mixture of 8-HHA and that of the individual enantiomers, namely S and R enantiomers, were examined on the survival of HOP-92 lung cancer cell lines. The cell viability was examined in the exponential growth phase with 100 μM of 8-HHA for 72 hours using colorimetric MTT assay. In separate assays, HOP-92 cells were treated with different concentrations of the S-enantiomer of 8-HHA ranging from 20-100 μM for 72 hours."}, "[3]": {"tested_on": "SNU449 liver cancer cell line", "assay": "Cell survival, colorimetric MTT assay, SNU449", "assay_type": "cell-based", "conditions": "100 μM, 72 hours", "experimental": "2) Against the liver cancer cell lines: The effect of the racemic mixture of 8-HHA and that of the individual enantiomers, namely S and R enantiomers, were examined on survival of PLC/PRF/5 (also referred to as “PLC-5” or “PLC5”), Hep3B and SNU449 (also referred to as “SNU”) liver cancer cell lines. The cell viability was examined in the exponential growth phase with 100 μM of 8-HHA for 72 hours using colorimetric MTT assay. In separate assays, PLC-5 cells were treated with different concentrations of S-enantiomer of 8-HHA ranging from 20-100 μM for 72 hours."}, "[4]": {"assay": "Maximal tolerated dose (MTD), single IV bolus", "assay_type": "in vivo", "experimental": "The purpose of this study was to determine the maximum tolerated dose of 8-HHA following intravenous (IV) administration in ICR mice. A racemic mixture of 8-HHA, placebo, and vehicle were administered to 20 ICR female mice with weight of 25-30 grams, respectively. The 8-HHA was formulated in nanolipid at concentration of 0, 10, 20 and 40 mg/ml. There were 4 animals per group and they were injected with 0, 10, 20 and 40 mg/kg dose of 8-HHA Mice were given a single bolus dose via the tail vein according to group assignment. One week after dosing mice were sacrificed. Daily clinical observations were performed 15 minutes and 1 hour post dose. The mice were observed daily for any adverse effects until necropsy on study day 8. Body weights were recorded for all the mice prior to test substance administration, and every other day throughout the test period. This entire study was performed at Toxikon Corporation, Bedford, Mass."}, "[5]": {"assay": "Water solubility (statement)", "assay_type": "physicochemical"}, "[6]": {"tested_on": "HOP92 cells", "assay": "Lung cancer xenograft mouse model (HOP92)", "assay_type": "in vivo, BALB/c nu/nu mice", "conditions": "for Mean ± SEM Tumor Volume (HOP-92): 10 mg/kg IP", "text": "The purpose of this study was to determine anti tumor efficacy of 8-HHA in lung cancer using HOP92 cells.\nAnimals and care: Thirty BABL/c nude, non-pregnant and nulliparous female mice that are 5-6 weeks old and weighing 16-20 gms were used in this study. BALB/c nu/nu mice were used because they have been historically used in xenograft studies to test anti-tumor efficacy of drug candidates. Mice were acclimatized for minimum 5 days, under same conditions as for the actual test. Mice were housed at room temperature 68±5° F. with room Relative Humidity of 30-70%, air Exchanges per Hour of a minimum of 10 changes per hour, lights exposure of 12-hour light/dark cycle, full spectrum fluorescent lights. The mice were housed in groups in ventilated micro-isolator cages made up of polycarbonate. The mice were using autoclaved laboratory grade bedding and were provided ad libitum with irradiated pellets and autoclaved water. There were no known contaminants present in the feed, water, or bedding expected to interfere with the test data. The laboratory and animal rooms were maintained as limited-access facilities.\nRoute of injection and dose: 8-HHA was administered through intraperitoneal (IP) injection.\nTumor Induction: The cell line HOP92 were cultured according to recommended specifications at Vanas Oncology as above discussed in Example 20. Cells were trypizinized and counted using the Trypan-blue viability test using a hemocytometer. Cell counts in quadrants of the hemocytometer were converted to a cells/mL value, which will enable isolation of the appropriate number of cells per mouse. Each mouse was inoculated subcutaneously in the right flank region with 0.2 mL of a 50% RPMI/50% Matrigel™ mixture containing a suspension of tumor cells (5×10^6 cells/mouse). Tumors were observed twice weekly until well established. Tumor volume was calculated using the formula: Tumor weight (mg)=(a×b^2/2) where ‘b’ is the smallest diameter and ‘a’ is the largest diameter in millimeters.\nAllocation of Animals: Once the established tumors reach a mean calculated volume of approximately 50-100 mg, the mice were randomized, using appropriate software, into treatment groups in order to reduce the variability of tumor sizes per group.\nPre Dose Procedure: Acclimated animals were weighed and observed for clinical signs of toxicity prior to dosing on Day 1.\nThe first day of dosing is Day 1. On Day 1,8-HHA, and vehicle injections are administered according to the study design in Table 9 below.\nPost Dose Procedure: Following treatment, tumor and mouse body weight measurements were recorded twice weekly and gross observation was made at least once daily. Mice with tumors that were not palpable was considered complete regressions. Percentage of mice mortality and time of death were recorded for every group in the study. Animals may be defined as moribund and sacrificed if one or more of the following criteria are met: • Loss of body weight of 20% or greater in a 1 week period. • Mice that inhibit normal physiological function such as eating, drinking, mobility, and ability to urinate and/or defecate. • Tumors that exceed a maximum size of 2000 mg as measured by calipers. • Ulcerated tumors, or tumors that bleed or produce exudates. • Prolonged, excessive diarrhea leading to excessive weight loss (>20%). • Persistent wheezing and respiratory distress. • Prolonged or excessive pain or distress as defined by clinical observations such as: prostration, hunched posture, paralysis/paresis, distended abdomen, ulcerations, abscesses, seizures, and/or hemorrhages."}, "[7]": {"tested_on": "colorectal cancer cell lines (HCT-116, HCT-15, KM12)", "assay": "NCI 60 human tumor cell line screen (MTT), colorectal lines", "conditions": "10 μM; three out of 7 lines"}}, "data": [{"molecule": "CCCCCCCCC(O)CCCCCCC(=O)O", "note": "(racemic) [Sample 8-HHA, 8-hydroxy-palmitic acid]", "values": [{"measurement": "suppressed growth of leukemia cell lines", "setting": "[1]", "result": "40-96%"}, {"measurement": "reduced the survival of HOP92 cell lines by", "setting": "[2]", "result": 25, "unit": "%"}, {"measurement": "effect on survival of SNU cell line", "setting": "[3]", "result": "no major effect"}, {"measurement": "tolerability / clinical abnormalities", "setting": "[4]; 10 mg/kg and 20 mg/kg IV", "result": "did not demonstrate any clinical abnormalities"}, {"measurement": "mice that died shortly after being dosed", "setting": "[4]; high dose 40 mg/kg IV, 4 animals per group", "result": "Two"}, {"measurement": "MTD at 8 days", "setting": "[4]; mouse, in vivo, ICR female mice, single IV bolus, nanolipid formulation, read-out: maximum tolerated dose", "result": 20, "unit": "mg/kg"}, {"measurement": "body weight at day 6 and 8", "setting": "[4]; single IV bolus", "result": "did not vary from pre dose weight"}, {"measurement": "water solubility", "setting": "[5]", "result": "poorly water soluble"}, {"measurement": "Mean ± SEM Tumor Volume (HOP-92)", "setting": "[6]; Day 16", "result": "88.78±28.61", "unit": "mm^3"}, {"measurement": "Mean ± SEM Tumor Volume (HOP-92)", "setting": "[6]; Day 18", "result": "82.02±25.93", "unit": "mm^3"}, {"measurement": "decrease in tumor volume vs control group", "setting": "[6]; T1 10 mg/Kg, day 16", "result": 58.6, "unit": "%"}, {"measurement": "decrease in tumor volume vs control group", "setting": "[6]; T1 10 mg/Kg, day 18", "result": 68.2, "unit": "%"}, {"measurement": "decrease in tumor volume vs control group", "setting": "[6]; T2 100 mg/Kg, day 16", "result": 56.5, "unit": "%"}, {"measurement": "decrease in tumor volume vs control group", "setting": "[6]; T2 100 mg/Kg, day 18", "result": 73.1, "unit": "%"}, {"measurement": "tumor growth inhibition, in words", "setting": "[6]; both T1 (10 mg/Kg) and T2 (100 mg/Kg)", "result": "significantly inhibited tumor growth in mice from day 16"}, {"measurement": "growth suppression of colorectal cancer cell lines, in words", "setting": "[7]", "result": "moderate evidence of growth suppression"}]}]}
